Here are results for 16 compounds from patent US12559506B2, “Indazole based compounds and associated methods of use” (Arvinas Operations, Inc., priority 2021, dated 2026).

Like-named read-outs stand apart in the source and are kept apart here. Bounds are passed on as bounds.

Broadly, the Dmax is the greatest extent of degradation seen. As usually defined, the DC50 is the concentration giving 50% degradation.

For this assay, the target named is T1, LRRK2 (endogenous, HiBit tagged) (Homo sapiens, UniProt Q5S007).
T1 construct: endogenous in cells; host or cells: HEK293 cells with HiBit knock-in at the endogenous LRRK2 locus, stably expressing firefly luciferase
Briefly: Endogenous LRRK2 degradation assay, endogenous gene C-terminally HiBit-tagged in HEK293 cells (Nano-Glo Dual Luciferase). Format: cell-based. In outline:
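LRRK2-HiBit quantified via Nano-Glo Dual Luciferase in HEK293 knock-in cells co-expressing firefly luciferase, after 24 h exposure to compound (1 μM final top, 1:3, 11 points). Values normalised to DMSO median per plate and curve-fitted; Alamar Blue viability run alongside.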
On the technique in general: HiBiT is a short tag that completes a luciferase, so light tracks the accessible tagged protein.

[1] abbreviates: endogenous HiBit-tagged LRRK2 in HEK293 cells, 24 hours, read-out: **Endogenous WT Dmax (%).
Where [2] appears, read: endogenous HiBit-tagged LRRK2 in HEK293 cells, 24 hours, read-out: *Endogenous WT DC50.
The mark [3] stands for this setting: endogenous HiBit-tagged LRRK2 in HEK293 cells, 24 hours treatment, read-out: **Endogenous WT Dmax (%).
Where [4] appears, read: endogenous HiBit-tagged LRRK2 in HEK293 cells, 24 hours treatment, read-out: *Endogenous WT DC50.
[5] abbreviates: endogenous HiBit-tagged LRRK2 in HEK293 cells, 24 hours treatment, read-out: Endogenous WT DC50.
Where [6] appears, read: endogenous HiBit-tagged LRRK2 in HEK293 cells, 24 hours treatment, read-out: Endogenous WT Dmax.

T1 sequence (Q5S007 whole entry): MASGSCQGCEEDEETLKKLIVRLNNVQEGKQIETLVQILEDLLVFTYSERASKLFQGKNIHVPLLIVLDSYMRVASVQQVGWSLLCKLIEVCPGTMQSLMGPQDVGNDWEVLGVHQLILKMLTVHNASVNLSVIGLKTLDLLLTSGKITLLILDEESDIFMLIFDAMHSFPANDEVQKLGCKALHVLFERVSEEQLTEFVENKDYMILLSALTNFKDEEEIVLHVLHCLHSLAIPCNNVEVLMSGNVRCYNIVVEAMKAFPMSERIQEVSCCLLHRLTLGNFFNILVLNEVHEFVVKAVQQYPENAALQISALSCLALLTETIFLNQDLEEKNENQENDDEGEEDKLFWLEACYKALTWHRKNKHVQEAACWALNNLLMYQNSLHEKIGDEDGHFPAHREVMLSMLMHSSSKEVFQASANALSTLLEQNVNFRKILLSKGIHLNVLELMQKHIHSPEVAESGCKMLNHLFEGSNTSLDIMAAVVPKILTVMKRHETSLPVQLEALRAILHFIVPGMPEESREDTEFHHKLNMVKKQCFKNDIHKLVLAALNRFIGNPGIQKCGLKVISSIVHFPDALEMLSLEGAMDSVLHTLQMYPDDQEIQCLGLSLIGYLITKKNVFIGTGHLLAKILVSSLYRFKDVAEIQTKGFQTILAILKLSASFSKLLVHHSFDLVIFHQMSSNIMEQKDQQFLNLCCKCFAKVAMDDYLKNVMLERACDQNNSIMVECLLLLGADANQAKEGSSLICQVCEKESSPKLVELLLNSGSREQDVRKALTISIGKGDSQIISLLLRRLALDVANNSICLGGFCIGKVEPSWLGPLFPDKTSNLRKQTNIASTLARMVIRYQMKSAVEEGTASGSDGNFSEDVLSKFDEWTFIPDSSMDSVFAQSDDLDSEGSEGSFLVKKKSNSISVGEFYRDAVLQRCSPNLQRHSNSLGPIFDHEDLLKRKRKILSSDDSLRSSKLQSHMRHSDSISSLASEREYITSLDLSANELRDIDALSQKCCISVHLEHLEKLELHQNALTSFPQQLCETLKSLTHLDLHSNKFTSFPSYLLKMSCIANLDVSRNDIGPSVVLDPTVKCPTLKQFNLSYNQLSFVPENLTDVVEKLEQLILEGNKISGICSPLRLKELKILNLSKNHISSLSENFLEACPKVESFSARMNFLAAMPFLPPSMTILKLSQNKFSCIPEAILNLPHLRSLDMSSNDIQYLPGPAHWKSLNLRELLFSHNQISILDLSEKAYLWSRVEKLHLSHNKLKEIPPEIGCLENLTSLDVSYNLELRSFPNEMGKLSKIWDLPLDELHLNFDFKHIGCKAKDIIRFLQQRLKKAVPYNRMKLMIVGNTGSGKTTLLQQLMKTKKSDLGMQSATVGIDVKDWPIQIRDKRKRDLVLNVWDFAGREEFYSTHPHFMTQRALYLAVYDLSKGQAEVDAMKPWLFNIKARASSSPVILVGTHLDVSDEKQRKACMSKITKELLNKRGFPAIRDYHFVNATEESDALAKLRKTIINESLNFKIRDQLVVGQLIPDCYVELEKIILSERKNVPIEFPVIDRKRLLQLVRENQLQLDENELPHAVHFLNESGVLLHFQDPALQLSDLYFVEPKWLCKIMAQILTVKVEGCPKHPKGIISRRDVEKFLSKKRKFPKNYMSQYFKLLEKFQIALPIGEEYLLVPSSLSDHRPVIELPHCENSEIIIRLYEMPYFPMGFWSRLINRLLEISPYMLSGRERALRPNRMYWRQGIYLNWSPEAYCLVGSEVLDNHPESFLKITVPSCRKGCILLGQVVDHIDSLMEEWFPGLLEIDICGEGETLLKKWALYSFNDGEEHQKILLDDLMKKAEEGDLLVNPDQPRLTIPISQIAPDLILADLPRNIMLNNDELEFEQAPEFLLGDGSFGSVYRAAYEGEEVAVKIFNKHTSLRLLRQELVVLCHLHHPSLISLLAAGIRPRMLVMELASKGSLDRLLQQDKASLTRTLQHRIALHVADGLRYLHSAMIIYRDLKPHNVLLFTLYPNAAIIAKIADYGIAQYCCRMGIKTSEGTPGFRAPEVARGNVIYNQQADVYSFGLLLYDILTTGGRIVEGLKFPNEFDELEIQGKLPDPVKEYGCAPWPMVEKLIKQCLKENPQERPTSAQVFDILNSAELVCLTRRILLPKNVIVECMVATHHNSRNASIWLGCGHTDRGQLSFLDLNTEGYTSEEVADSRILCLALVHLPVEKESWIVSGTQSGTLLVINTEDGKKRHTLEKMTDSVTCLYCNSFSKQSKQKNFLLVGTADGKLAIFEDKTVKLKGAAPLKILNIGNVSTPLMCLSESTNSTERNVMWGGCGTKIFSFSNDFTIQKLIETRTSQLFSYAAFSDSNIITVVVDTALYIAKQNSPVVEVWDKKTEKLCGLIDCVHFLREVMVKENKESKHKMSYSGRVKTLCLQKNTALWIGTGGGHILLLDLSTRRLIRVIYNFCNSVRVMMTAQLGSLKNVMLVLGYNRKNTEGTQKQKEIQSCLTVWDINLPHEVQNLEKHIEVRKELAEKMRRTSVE

With `C[C@H]1CN(c2cc(-c3[nH]nc4ccc(OC5(C)CC5)cc34)ncn2)CCN1CCC1CCN(C(=O)C2CCN(c3ccc4c(c3)C(=O)N(C3CCC(=O)NC3=O)C4=O)CC2)CC1` (stereo partly drawn) [Compound 57, 2-(2,6-dioxopiperidin-3-yl)-5-[4-(4-{2-[(2S)-2-methyl-4-{6-[5-(1-methylcyclopropoxy)-2H-indazol-3-yl]pyrimidin-4-yl}piperazin-1-yl]ethyl}piperidine-1-carbonyl)piperidin-1-yl]-2,3-dihydro-1H-isoindole-1,3-dione], the maximal degradation (Dmax) under setting [1] was at least 70%. Also, the DC50 under setting [2] was below 10 nM.
`COc1c(N2CCC(O[C@H]3CC[C@H](CN4CCN(c5cc(-c6n[nH]c7cc(F)c(OC8(C)CC8)cc67)ncn5)CC4)CC3)CC2)ccc2c1CN(C1CCC(=O)NC1=O)C2=O` (stereo partly shown) [Compound 280, 3-[4-methoxy-1-oxo-5-(4-{[(1r,4r)-4-[(4-{6-[6-fluoro-5-(1-methylcyclopropoxy)-1H-indazol-3-yl]pyrimidin-4-yl}piperazin-1-yl)methyl]cyclohexyl]oxy}piperidin-1-yl)-2,3-dihydro-1H-isoindol-2-yl]piperidine-2,6-dione]: the Dmax under setting [3] was 50 to 70%. Also, under setting [4], the DC50 is below 10 nM.
Regarding `CC1(Oc2ccc3[nH]nc(-c4cc(N5CCN(CC6(F)CCN(CC7CCN(c8c(F)cc9c(c8F)CN(C8CCC(=O)NC8=O)C9=O)CC7)CC6)CC5)ncn4)c3c2)CC1` (stereo not shown) [Compound 220, 3-{4,6-difluoro-5-[4-({4-fluoro-4-[(4-{6-[5-(1-methylcyclopropoxy)-1H-indazol-3-yl]pyrimidin-4-yl}piperazin-1-yl)methyl]piperidin-1-yl}methyl)piperidin-1-yl]-1-oxo-2,3-dihydro-1H-isoindol-2-yl}piperidine-2,6-dione], under setting [5], the DC50 is below 10 nM. For the same compound, the Dmax under setting [6] was in the range of 50 to 70%.
As to `C[C@H]1CN(c2cc(-c3[nH]nc4ccc(OC5(C)CC5)cc34)ncn2)CCN1CCN1CCC(C(=O)N2CCN(c3ccc4c(c3)C(=O)N(C3CCC(=O)NC3=O)C4=O)CC2)CC1` (stereo partly drawn) [Compound 58, 2-(2,6-dioxopiperidin-3-yl)-5-[4-(1-{2-[(2S)-2-methyl-4-{6-[5-(1-methylcyclopropoxy)-2H-indazol-3-yl]pyrimidin-4-yl}piperazin-1-yl]ethyl}piperidine-4-carbonyl)piperazin-1-yl]-2,3-dihydro-1H-isoindole-1,3-dione], the Dmax under setting [1] was in the range of 50 to 70%. Also, under setting [2], the DC50 is below 10 nM.
Take `COc1c(N2CCC(CN3CCN(CC4CCN(c5cc(-c6n[nH]c7cc(F)c(OC8(C)CC8)cc67)ncn5)CC4)CC3(C)C)CC2)ccc2c1CN(C1CCC(=O)NC1=O)C2=O` (stereo not shown) [Compound 349, 3-{5-[4-({4-[(1-{6-[6-fluoro-5-(1-methylcyclopropoxy)-1H-indazol-3-yl]pyrimidin-4-yl}piperidin-4-yl)methyl]-2,2-dimethylpiperazin-1-yl}methyl)piperidin-1-yl]-4-methoxy-1-oxo-2,3-dihydro-1H-isoindol-2-yl}piperidine-2,6-dione]: under setting [4], the half-maximal degradation concentration (DC50) is below 10 nM.
As for `CC1(Oc2ccc3[nH]nc(-c4cc(N5CCC(OC6CCC7(CC6)CN(c6ccc8c(c6F)CN(C6CCC(=O)NC6=O)C8=O)C7)CC5)ncn4)c3c2)CC1` (stereo not shown) [Compound 374, 3-(4-fluoro-5-{7-[(1-{6-[5-(1-methylcyclopropoxy)-1H-indazol-3-yl]pyrimidin-4-yl}piperidin-4-yl)oxy]-2-azaspiro[3.5]nonan-2-yl}-1-oxo-2,3-dihydro-1H-isoindol-2-yl)piperidine-2,6-dione], under setting [5], the DC50 is below 10 nM. Also, under setting [6], the Dmax was 50 to 70%.
As for `CC1(Oc2cc3c(-c4cc(N5CCC(CN6CC[C@@H](CN7CCN(c8ccc9c(c8F)CN(C8CCC(=O)NC8=O)C9=O)CC7)[C@@H](F)C6)CC5)ncn4)n[nH]c3cc2F)CC1` (stereo partly shown) [Compound 294, 3-[4-fluoro-5-(4-{[(3r,4s)-3-fluoro-1-[(1-{6-[6-fluoro-5-(1-methylcyclopropoxy)-1H-indazol-3-yl]pyrimidin-4-yl}piperidin-4-yl)methyl]piperidin-4-yl]methyl}piperazin-1-yl)-1-oxo-2,3-dihydro-1H-isoindol-2-yl]piperidine-2,6-dione], under setting [3], the Dmax was 50 to 70%. Besides, under setting [4], the DC50 was below 10 nM.
For `CC1(Oc2ccc3n[nH]c(-c4cc(N5CCC(O[C@H]6C[C@H](N7CC8(CCN(c9ccc%10c(c9F)CN(C9CCC(=O)NC9=O)C%10=O)CC8)C7)C6)CC5)ncn4)c3c2)CC1` (stereo partly shown) [Compound 335, 3-(4-fluoro-1-oxo-5-{2-[(1r,3r)-3-[(1-{6-[5-(1-methylcyclopropoxy)-2H-indazol-3-yl]pyrimidin-4-yl}piperidin-4-yl)oxy]cyclobutyl]-2,7-diazaspiro[3.5]nonan-7-yl}-2,3-dihydro-1H-isoindol-2-yl)piperidine-2,6-dione] the same measures were 50 to 70% and below 10 nM.
On to `CC1(Oc2cc3c(-c4cc(N5CCC(CN6CCN(CC7CCN(c8ccc9c(c8F)CN(C8CCC(=O)NC8=O)C9=O)CC7)CC6)CC5)ncn4)n[nH]c3cc2F)CC1` (stereo not shown) [Compound 186, 3-[4-fluoro-5-[4-[[4-[[1-[6-[6-fluoro-5-(1-methylcyclopropoxy)-1H-indazol-3-yl]pyrimidin-4-yl]-4-piperidyl]methyl]piperazin-1-yl]methyl]-1-piperidyl]-1-oxo-isoindolin-2-yl]piperidine-2,6-dione], for which, where the note is “endogenous HiBit-tagged LRRK2, HEK293 cells, 24 hours, read-out: **Endogenous WT Dmax (%)”, the greatest degradation seen (Dmax) is at least 70%. Besides, the DC50 (endogenous HiBit-tagged LRRK2, HEK293 cells, 24 hours, read-out: *Endogenous WT DC50) was below 10 nM.
Regarding `CC1(Oc2ccc3n[nH]c(-c4cc(N5CCC(CN6C[C@H]7C[C@@H]6CN7CC6CCN(c7ccc8c(c7F)CN(C7CCC(=O)NC7=O)C8=O)CC6)CC5)ncn4)c3c2)CC1` (stereo partly drawn) [Compound 226, 3-[4-fluoro-5-(4-{[(1R,4R)-5-[(1-{6-[5-(1-methylcyclopropoxy)-2H-indazol-3-yl]pyrimidin-4-yl}piperidin-4-yl)methyl]-2,5-diazabicyclo[2.2.1]heptan-2-yl]methyl}piperidin-1-yl)-1-oxo-2,3-dihydro-1H-isoindol-2-yl]piperidine-2,6-dione], the 50% degradation concentration (DC50) under setting [5] was below 10 nM. Moreover, the Dmax under setting [6] lay within 50 to 70%.
For `CC1(Oc2ccc3n[nH]c(-c4cc(N5CCC(O[C@H]6CC[C@H](CN7CCN(c8ccc9c(c8F)CN(C8CCC(=O)NC8=O)C9=O)CC7)CC6)CC5)ncn4)c3c2)CC1` (stereo partly shown) [Compound 213, 3-[4-fluoro-5-[4-[[4-[[1-[6-[5-(1-methylcyclopropoxy)-2H-indazol-3-yl]pyrimidin-4-yl]-4-piperidyl]oxy]cyclohexyl]methyl]piperazin-1-yl]-1-oxo-isoindolin-2-yl]piperidine-2,6-dione] the same measures were below 10 nM and at least 70%.
The like results for `CC1(Oc2ccc3[nH]nc(-c4cc(N5CCN(C[C@H]6CC[C@H](CN7CCN(c8ccc9c(c8Cl)CN(C8CCC(=O)NC8=O)C9=O)CC7)CC6)CC5)ncn4)c3c2)CC1` (stereo partly shown) [Compound 370, 3-[4-chloro-1-oxo-5-(4-{[(1r,4r)-4-[(4-{6-[5-(1-methylcyclopropoxy)-1H-indazol-3-yl]pyrimidin-4-yl}piperazin-1-yl)methyl]cyclohexyl]methyl}piperazin-1-yl)-2,3-dihydro-1H-isoindol-2-yl]piperidine-2,6-dione] were, in that order, below 10 nM and 50 to 70%.
The like results for `Cc1cc(-c2n[nH]c3ccc(OC4(C)CC4)cc23)cc(N2CCN(C[C@H]3CC[C@H](OC4CCN(c5ccc6c(c5F)CN(C5CCC(=O)NC5=O)C6=O)CC4)CC3)CC2)n1` (stereo partly shown) [Compound 379, 3-[4-fluoro-1-oxo-5-(4-{[(1r,4r)-4-[(4-{6-methyl-4-[5-(1-methylcyclopropoxy)-1H-indazol-3-yl]pyridin-2-yl}piperazin-1-yl)methyl]cyclohexyl]oxy}piperidin-1-yl)-2,3-dihydro-1H-isoindol-2-yl]piperidine-2,6-dione] were, in that order, below 10 nM and 50 to 70%.
Consider `C[C@H]1CN(CC2CCN(c3cc(-c4n[nH]c5cnc(OC6(C)CC6)cc45)ncn3)CC2)CCN1CC1CCN(c2ccc3c(c2F)CN(C2CCC(=O)NC2=O)C3=O)CC1` (stereo partly drawn) [Compound 276, 3-[4-fluoro-5-(4-{[(2S)-2-methyl-4-[(1-{6-[5-(1-methylcyclopropoxy)-1H-pyrazolo[3,4-c]pyridin-3-yl]pyrimidin-4-yl}piperidin-4-yl)methyl]piperazin-1-yl]methyl}piperidin-1-yl)-1-oxo-2,3-dihydro-1H-isoindol-2-yl]piperidine-2,6-dione], for which the maximal degradation (Dmax) under setting [3] fell in the range of 50 to 70%. For the same compound, the half-maximal degradation concentration (DC50) under setting [4] was below 10 nM.
With `CC1(Oc2cc3c(-c4cc(N5CCC(O[C@H]6C[C@@H](OC7CCN(c8ccc9c(c8F)CN(C8CCC(=O)NC8=O)C9=O)CC7)C6)CC5)ncn4)n[nH]c3cn2)CC1` (stereo partly shown) [Compound 233, 3-(4-fluoro-1-oxo-5-{4-[(1s,3s)-3-[(1-{6-[5-(1-methylcyclopropoxy)-1H-pyrazolo[3,4-c]pyridin-3-yl]pyrimidin-4-yl}piperidin-4-yl)oxy]cyclobutoxy]piperidin-1-yl}-2,3-dihydro-1H-isoindol-2-yl)piperidine-2,6-dione], under setting [5], the DC50 was below 10 nM. Further, under setting [6], the Dmax was 50 to 70%.
As for `COc1c(N2CCC(CN3CCN(CC4CCN(c5cc(-c6n[nH]c7cnc(OC8(C)CC8)cc67)ncn5)CC4)C(C)(C)C3)CC2)ccc2c1CN(C1CCC(=O)NC1=O)C2=O` (stereo not shown) [Compound 338, 3-{5-[4-({3,3-dimethyl-4-[(1-{6-[5-(1-methylcyclopropoxy)-1H-pyrazolo[3,4-c]pyridin-3-yl]pyrimidin-4-yl}piperidin-4-yl)methyl]piperazin-1-yl}methyl)piperidin-1-yl]-4-methoxy-1-oxo-2,3-dihydro-1H-isoindol-2-yl}piperidine-2,6-dione], under setting [3], the maximal degradation (Dmax) lay in the range of 50 to 70%. Besides, under setting [4], the DC50 was below 10 nM.
